Test [1] concerns the target Alpha-Synuclein Protofibril binding to purified human brain membranes (Homo sapiens, UniProt P37840). Nature of the test: Inhibition of protofibrillar alpha-synuclein binding to purified human brain cell membranes (ELISA). To be noted: alpha-synuclein protofibrils. As for the experimental part: (§1) Purified human brain cell membranes were prepared by differential centrifugation as follows. Five grams of frozen human brain postmortem tissue (obtained from University of Kentucky Alzheimer's Disease Center Tissue Bank) was homogenized in 50 ml HEPES-Buffered sucrose (0.32M sucrose, 4 mM HEPES pH7.4, protease inhibitors) with a motor driven glass-teflon homogenizer. After removing nuclear and cell debris by centrifugation of homogenates at 1,000×g for 10 min at 4 degree Celsius, post-nuclear supernatant was centrifuged at 100,000×g for 30 minutes to yield the crude membrane pellet. Crude membrane pellet was re-suspended in 0.32M sucrose, then centrifuged again at 100,000×g for 30 minutes to yield washed membrane pellet. Membrane pellet was resuspended in sterile PBS (pH7.4), quickly frozen, and kept in aliquots at −80 degrees Celsius. This preparation contains human brain cell membranes. Protein concentration was measured with BCA protein assay kit (Pierce Cat. No. 23227). Purified brain membranes were diluted to 0.01 mg/ml in PBS (pH 7.4) and then added to a 96 well polystyrene ELISA plate (NUNC Cat. No. 449824; 100 μl per well). Plates were incubated Over Night (ON) at 4 degrees Celsius. Following the incubation, the plate was washed consecutively, by immersion, with de-ionized water and PBS (pH 7.4). The ELISA plate was then blocked with nonfat milk (2%, 200 μl per well) for 2 hours at Room Temperature (RT). Following blocking, the plate was washed with de-ionized water then PBS (pH 7.4). GBAPs were dissolved and diluted in PBS (pH 6.5, supplemented with 0.1% BSA) at desired concentrations, added to the ELISA plates coated with brain membranes (100 μl per well) and incubated for 2 hours at RT with gentle shaking. Following incubation, the plate was washed with de-ionized water and three times with PBS (pH 6.5) plus Tween. Bound GBAP was detected by a monoclonal antibody specific for that GBAP, followed by incubation with secondary antibody conjugated to horseradish peroxidase (HRP). Antibody was diluted in PBS (pH6.5 supplemented with 1% BSA). Following each incubation with antibody, the plate was washed with de-ionized water and three times with PBS (pH6.5) wash buffer containing 0.1% Tween. The peroxidase substrate chromogen, TMB (Dako Cat. No. S1599) was added (100 μl per well) to the ELISA plate and incubated at room temperature. After 5 minutes ELISA Stop Solution (hydrochloric acid 1N, sulfuric acid 3N) was added (100 μl per well) to stop the peroxidase catalyzed colorimetric reaction. The Optical Density of the samples was measured at 450 nm using an ELISA plate reader (BioTek Synergy H1). Following color development, the % inhibition compared to control was determined. IC-50s were calculated using GraphPad Prism software.
The assay was performed as described in Example 49, with the following modifications. Following to coating the plates with human brain membranes, plates were washed as described. The compounds were dissolved in DMSO at 10 mM final concentration and further diluted prior to assay. DMSO concentration in the screening well was up to 2%. Individual compounds were co-incubated with alpha-synuclein on plates coated with brain membranes. Protofibrillar Alpha-synuclein were prepared as described in Example 45. Protofibrillar Alpha-synuclein diluted in PBS (pH 6.5, supplemented with BSA, 0.1%) was added to the ELISA plate (100 μl per well) and incubated for 2 hours at RT with gentle shaking. Following the incubation, the plate was washed with de-ionized water and three times with PBS (pH 6.5) plus Tween. Bound alpha-synuclein was detected by Anti-Alpha-synuclein Monoclonal Antibody 211 (Santa Cruz Cat. No. sc-12767), followed by secondary anti-IgG antibody conjugated to HRP (R&D System, Cat. No. HAF007). Following to color development with TMB, as described in Example 49, the Optical Density of the samples was measured at 450 nm using an ELISA plate reader. […]
In general terms: ELISA stands for enzyme-linked immunosorbent assay.

For test [2], the target named is TDP-43 binding to purified human brain membranes (Homo sapiens, UniProt Q13148). Nature of the test: Inhibition of TDP-43 binding to purified human brain cell membranes (ELISA). To be noted: TDP-43, purified human brain membranes. On the procedure: as §1
The assay was performed as described in Example 49, with the following modifications. Following to coating the plates with purified human brain cell membranes, plates were washed as described. The compounds were dissolved in DMSO at 10 mM final concentration and further diluted prior to assay. DMSO concentration in the screening well was up to 2%. Individual compounds were co-incubated with TDP-43 on plates coated with brain membranes. TDP43 from R&D System (Cat. No. AP-190) was quickly frozen and kept in aliquots at −80 degrees Celsius. TDP-43 dissolved in PBS (pH 6.5, supplemented with BSA, 0.1%) was added to the ELISA plate (100 μl per well) and incubated for 2 hours at RT with gentle shaking. Following the incubation, the plate was washed with de-ionized water and three times with PBS (pH 6.5) plus Tween. Bound TDP-43 was detected by Anti-TDP43 Monoclonal Antibody (R&D System Cat. No. MAB7778), followed by secondary anti-IgG antibody conjugated to HRP (R&D System, Cat. No. HAF007). Following to color development with TMB, as described in Example 49, the Optical Density of the samples was measured at 450 nm using an ELISA plate reader. […]

The mark [3] stands for this setting: Alpha-Synuclein/Membrane Activity (IC-50).
Setting [4] is: TDP43/Membrane Activity (IC-50).

The structures appear in SMILES notation. Counter-ions that a name gives are not always drawn. Like-named read-outs stand apart in the source and are kept apart here.

Chain of TDP-43 binding to purified human brain membranes (Q13148 whole entry): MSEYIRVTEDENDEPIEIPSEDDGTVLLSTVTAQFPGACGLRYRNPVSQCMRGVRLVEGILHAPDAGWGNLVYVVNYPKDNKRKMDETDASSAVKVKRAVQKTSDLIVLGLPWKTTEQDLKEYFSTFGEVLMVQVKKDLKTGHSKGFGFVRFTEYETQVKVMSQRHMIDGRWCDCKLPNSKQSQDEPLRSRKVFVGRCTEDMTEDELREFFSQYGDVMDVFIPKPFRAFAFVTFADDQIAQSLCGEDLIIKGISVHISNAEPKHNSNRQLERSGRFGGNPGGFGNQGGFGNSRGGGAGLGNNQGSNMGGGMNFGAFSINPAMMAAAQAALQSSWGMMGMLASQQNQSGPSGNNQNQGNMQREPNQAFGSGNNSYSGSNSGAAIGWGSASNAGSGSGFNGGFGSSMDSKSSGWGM

For `Clc1ccc2c(Nc3ccc(-n4cncn4)nc3)ncnc2c1` [Compound 34, N-(6-(1H-1,2,4-triazol-1-yl)pyridin-3-yl)-7-chloroquinazolin-4-amine phosphoric acid salt], the IC50 in test [1] (setting [3]) came to 4.38 µM; in test [2] (setting [4]) it was 3.67 µM.
Regarding `CC(=NNc1ccnc2cc(Cl)ccc12)c1ccc(-n2ccnc2)cc1` [Compound 36, 4-(2-(1-(4-(1H-imidazol-1-yl)phenyl)ethylidene)hydrazineyl)-7-chloroquinoline phosphate], the values for the IC50 in test [1] (setting [3]) and in test [2] (setting [4]) were 9.46 µM and 48.6 µM, respectively.
Turning to `Clc1ccc2c(N/N=C/c3ccc(-n4ccnc4)cc3)ccnc2c1` [Compound 38, 4-(2-(4-(1H-imidazol-1-yl)benzylidene)hydrazineyl)-7-chloroquinoline dihydrochloride], the values for the IC50 in test [1] (setting [3]) and in test [2] (setting [4]) were 2.79 µM and 6.17 µM, respectively.
On the same counts, the results for `Cc1ncn(-c2ncc(Nc3ncnc4cc(Cl)ccc34)cc2O)c1C` [Compound 40, 5-((7-chloroquinazolin-4-yl)amino)-2-(4,5-dimethyl-1H-imidazol-1-yl)pyridin-3-ol phosphoric acid salt] are 34.5 µM and 5.28 µM.
`Clc1ccc2c(Nc3ccc(-n4ccnc4)nc3)ncnc2c1` [Compound 41, N-(6-(1H-imidazol-1-yl)pyridin-3-yl)-7-chloroquinazolin-4-amine]: the values for the IC50 in test [1] (read-out: Alpha-Synuclein/Membrane Activity (IC-50)) and in test [2] (read-out: TDP43/Membrane Activity (IC-50)) were 5.8 µM and 8.32 µM, respectively.
`Clc1ccc2c(Nc3ccc(-n4cncn4)nc3)ccnc2c1` [Compound 44, N-(6-(1H-1,2,4-triazol-1-yl)pyridin-3-yl)-7-chloroquinolin-4-amine]: the IC50 was 22.3 µM in test [1] (setting [3]) and 26.2 µM in test [2] (setting [4]).

Values taken from patent publication US20240398783A1, “Compounds and Pharmaceutical Compositions Comprising Inhibitors of Amyloid Peptide Interactions with Glycosaminoglycans, Methods of Treatment and Use Thereof” (Gismo Therapeutics, Inc., priority 2021, published 2024).
